According to article PMC8761492 (Life Science Alliance, 2022):
Several values for one entry are separate records, joined by “and”; a condition that tells them apart may be missing. Equal entries are not always repeated. Where two headings read alike, the source gives them in different places. Starred links: 1 amine or outer side, 2 acyl side, 3 side chain; linkers in the order of their positions; H or OH if unused. Positions of bridges follow the written chain, without caps; N, C: chain ends. Non-standard residues stand in square brackets, D forms with d. Residues, ends and D or L forms follow the SMILES beside them. *: point of attachment. X1 = CC[C@H](C)[C@@H](N[*:1])[C@@H](O)CC(=O)O[C@H](C(=O)[C@H](C)C(=O)[*:2])C(C)C; NMeY = CN[C@@H](Cc1ccc(O)cc1)C(=O)O; dNMeL = CN[C@H](CC(C)C)C(=O)O; Pyruvoyl = CC(=O)C(=O)*

What was measured:
[1] = system: SARS-CoV; assay type: cell-based; conditions: Vero E6 cells; 50 nM; 48 hpi
[2] = Drug-induced cytotoxicity in Vero E6 cells in the absence of virus; assay type: cell-based; conditions: monkey, Vero E6 cells (ATCC CRL-1586), uninfected, Vero E6 cells without virus
[3] = system: SARS-CoV-2/WA1; assay: SARS-CoV-2 infectivity in HeLa-ACE2 cells (viral NP); assay type: cell-based; conditions: Severe acute respiratory syndrome coronavirus 2, HeLa-ACE2, 48 h
[4] = system: SARS-CoV-2 B.1.1.7; assay: microbe, parasite or virus in culture; assay type: cell-based; conditions: 24 h, mean ± SEM
[5] = system: SARS-CoV-2 (βCoV/KOR/KCDC03/2020); assay: microbe, parasite or virus in culture; assay type: cell-based; conditions: Severe acute respiratory syndrome coronavirus 2, Vero
[6] = system: SARS-CoV-2; assay: APLICOV-PC: SARS-CoV-2 viral load by qRT-PCR of nasopharyngeal samples; assay type: in vivo, human; conditions: for mean viral load decline from baseline: all doses; for log10 viral load: individual patients, ND = not detected
Description: Secondary outcomes included change from baseline of viral load, as evaluated by quantitative PCR via central laboratory on nasopharyngeal exudate or sampled from the lower respiratory tract within 48 h before first administration of plitidepsin and on days 4, 7, 15, and 31, and the percentage of patients requiring oxygen therapy, noninvasive mechanical ventilation, invasive mechanical ventilation and/or intensive care unit admission, and the percentage of patients with a fatal outcome on days 7, 15, and 31.
Centralized assessments of nasopharyngeal samples were performed at SYNLAB. Viral RNA extraction from the samples was performed using the Maxwell HT Viral TNA (AX2340) Promega, on the Hamilton automated extraction platform. Detection of nCoV2019 was carried out with the kit: TaqPath TM COVID-19 RT-PCR KIT (A48102) Thermo Fisher Scientific. The positivity/negativity criteria used for the interpretation of the results are defined in Table S7.
Each sample was analyzed in triplicate, and the cycle threshold (CT) value obtained was extrapolated to the standard curve, so that a value of viral load is obtained per reaction for said sample. The quantification, in triplicate, of the viral load of the patient sample was carried out at each of the five time points.
For quantification, in each sample plate, eight points, in triplicate (24 PCR in total), of the plasmid IDT 2019 nCov Kit CDC EUA of known viral load was used to generate the standard line on which to extrapolate the results of the samples of the trial patients. The sensitivity of the analytical method is 10 mRNA copies/run. Assuming a starting sample volume of 200 μl, from which 100 μl of mRNA can be obtained, and that a single PCR run requires 5 μl mRNA, it can be estimated that the sensitivity for 100% of the replicates is 1,000 mRNA copies/ml (3 log10). For mathematical analysis and graphical visualization, an intermediate value of 1.5 log10 has been imputed to samples with undetected SARS-CoV-2 mRNA.

[7] = system: COVID-19; assay: APLICOV-PC: post hoc analysis of hospital discharge; assay type: in vivo, human
Description: Post hoc analyses were conducted to (1) assess disease severity at baseline (mild, moderate, severe COVID-19 by FDA criteria) ([23]) and (2) assess covariates associated with efficacy end points, including hospital discharge by Day 15 or Day 8.
The Kaplan–Meier method was used for the description of time to event end points and the median and the 95% confidence intervals were provided.

[8] = system: SARS-CoV-2; set-up: method as in PMID 33495306; conditions: SARS-CoV-2 in vitro; cited from earlier work
[9] = cited from earlier work
[10] = APLICOV-PC: central analysis of electrocardiograms; conditions: 317 ECGs from 44 patients; no value above
[11] = 1-hour D1,8,15 q4wk, ref phase 1 programme
[12] = 1-hour iv D1-5 q3wk, ref APL-A-004-98
[13] = 3-hour D1,15 q4wk, ref phase 1 programme
[14] = 24-hour D1,8,15 q4wk, ref phase 1 programme
[15] = 24-hour D1,15 q4wk, plitidepsin alone, ref phase 1 programme

CC[C@H](C)[C@H]1NC(=O)[C@@H](NC(=O)[C@@H](CC(C)C)N(C)C(=O)[C@@H]2CCCN2C(=O)C(C)=O)[C@@H](C)OC(=O)[C@H](Cc2ccc(OC)cc2)N(C)C(=O)[C@@H]2CCCN2C(=O)[C@H](CC(C)C)NC(=O)[C@@H](C)C(=O)[C@H](C(C)C)OC(=O)C[C@@H]1O [Plitidepsin] (Pyruvoyl-P[dNMeL]T[X1]LP[NMeY](Me); ester 3-C)
decrease in SARS-CoV genomic RNA accumulation [1]: 10^4 fold
CC50 at 3 d [2]: 2900 nM
IC50 ([3]; read-out: Antiviral IC50): 0.201 nM
IC90 ([3]; read-out: Antiviral IC90): 0.881 nM
IC50 ([4]; Severe acute respiratory syndrome coronavirus 2, Caco-2, pretreated 2 h): 6.12 nM
IC50 ([4]; Severe acute respiratory syndrome coronavirus 2, Calu-3, pretreated 2 h): 5.87 nM
IC50 ([5]; Boryung Pharmaceuticals): 3.26 nM
IC90 ([5]; estimated from IC50 and Hill slope): 9.38 nM
Mean time from baseline until undetectable viral load ([6]; 1.5 mg): 11 days
Mean time from baseline until undetectable viral load ([6]; 2.0 mg): 14 days
Mean time from baseline until undetectable viral load ([6]; 2.5 mg): 14 days
Mean change in viral load from baseline to ([6]; Day 4, 1.5 mg): −1.23 log10 copies/ml
Mean change in viral load from baseline to ([6]; Day 4, 2.0 mg): −1.49 log10 copies/ml
Mean change in viral load from baseline to ([6]; Day 4, 2.5 mg): −1.32 log10 copies/ml
Mean change in viral load from baseline to ([6]; Day 4, Total): −1.35 log10 copies/ml
Mean change in viral load from baseline to ([6]; Day 7, 1.5 mg): −2.55 log10 copies/ml
Mean change in viral load from baseline to ([6]; Day 7, 2.0 mg): −2.26 log10 copies/ml
Mean change in viral load from baseline to ([6]; Day 7, 2.5 mg): −2.25 log10 copies/ml
Mean change in viral load from baseline to ([6]; Day 7, Total): −2.35 log10 copies/ml
Mean change in viral load from baseline to ([6]; Day 15, 1.5 mg): −4.22 log10 copies/ml
Mean change in viral load from baseline to ([6]; Day 15, 2.0 mg): −2.70 log10 copies/ml
Mean change in viral load from baseline to ([6]; Day 15, 2.5 mg): −2.92 log10 copies/ml
Mean change in viral load from baseline to ([6]; Day 15, Total): −3.25 log10 copies/ml
Mean change in viral load from baseline to ([6]; Day 31, 1.5 mg): −4.70 log10 copies/ml
Mean change in viral load from baseline to ([6]; Day 31, 2.0 mg): −3.53 log10 copies/ml
Mean change in viral load from baseline to ([6]; Day 31, 2.5 mg): −3.49 log10 copies/ml
Mean change in viral load from baseline to ([6]; Day 31, Total): −3.85 log10 copies/ml
Mean time from baseline until undetectable viral load ([6]; Total): 13 days
mean viral load decline from baseline ([6]; day 4): 1.35 log10 copies/ml
mean viral load decline from baseline ([6]; day 7): 2.35 log10 copies/ml
mean viral load decline from baseline ([6]; day 15): 3.25 log10 copies/ml
mean viral load decline from baseline ([6]; day 31): 3.85 log10 copies/ml
log10 viral load ([6]; 1.5 mg/d, Day 4): 5.14 copies/ mL and 3.25 copies/ mL and 8.4 copies/ mL and 9.54 copies/ mL and 6.54 copies/ mL and 3.61 copies/ mL and 7.39 copies/ mL and 4.02 copies/ mL and 6.56 copies/ mL and 5.76 copies/ mL
log10 viral load ([6]; 1.5 mg/d, Day 7): 8.47 copies/ mL and 6.63 copies/ mL and 4.34 copies/ mL and 4.7 copies/ mL and 5.83 copies/ mL and 4.71 copies/ mL and 3.82 copies/ mL
log10 viral load ([6]; 1.5 mg/d, Day 15): 6.05 copies/ mL and 7.46 copies/ mL
log10 viral load ([6]; 1.5 mg/d, Day 31): 4.42 copies/ mL
log10 viral load ([6]; 2 mg/d, Day 4): 7.95 copies/ mL and 4.46 copies/ mL and 5.3 copies/ mL and 6.17 copies/ mL and 4.53 copies/ mL and 4.47 copies/ mL and 5.34 copies/ mL and 5.99 copies/ mL and 5.69 copies/ mL and 5.5 copies/ mL
log10 viral load ([6]; 2 mg/d, Day 7): 6.52 copies/ mL and 4.68 copies/ mL and 4.59 copies/ mL and 3.38 copies/ mL and 4.02 copies/ mL and 3.62 copies/ mL and 4.33 copies/ mL and 2.89 copies/ mL and 5.2 copies/ mL and 5.49 copies/ mL
log10 viral load ([6]; 2 mg/d, Day 15): 8.14 copies/ mL and 5.52 copies/ mL and 5.22 copies/ mL and 4.43 copies/ mL and 4.92 copies/ mL
log10 viral load ([6]; 2 mg/d, Day 31): 7.37 copies/ mL and 4.31 copies/ mL and 4.69 copies/ mL
log10 viral load ([6]; 2.5 mg/d, Day 4): 4.3 copies/ mL and 5.45 copies/ mL and 4.37 copies/ mL and 4.77 copies/ mL and 5.57 copies/ mL and 6.26 copies/ mL and 8.67 copies/ mL and 9.84 copies/ mL and 3.79 copies/ mL and 9.25 copies/ mL
log10 viral load ([6]; 2.5 mg/d, Day 7): 3.05 copies/ mL and 4.44 copies/ mL and 5.49 copies/ mL and 3.33 copies/ mL and 7.29 copies/ mL and 9.54 copies/ mL and 6.99 copies/ mL
log10 viral load ([6]; 2.5 mg/d, Day 15): 3.8 copies/ mL and 5.66 copies/ mL and 5.92 copies/ mL and 8.33 copies/ mL
log10 viral load ([6]; 2.5 mg/d, Day 31): 3.6 copies/ mL and 5.33 copies/ mL and 4.68 copies/ mL
mean time to undetectable viral load ([6]; patients with mild or moderate disease at baseline): 12 days
mean time to undetectable viral load ([6]; patients with severe disease at baseline): 15 days
discharge rate at Day 15 ([7]; 1.5 mg/day): 78.6%
patients achieving hospital discharge by Day 8 ([7]; 1.5 mg/day): 42.9%
discharge rate at Day 15 ([7]; 2 mg/day): 93.3%
patients achieving hospital discharge by Day 8 ([7]; 2 mg/day): 60%
discharge rate at Day 15 ([7]; 2.5 mg/day): 73.3%
patients achieving hospital discharge by Day 8 ([7]; 2.5 mg/day): 66.7%
median time to discharge ([7]; mild COVID-19 at baseline): 7 days
discharge rate by Day 8 ([7]; mild disease, 4 of 6): 66.7%
discharge rate by Day 15 ([7]; mild disease, 6 of 6): 100%
median time to discharge ([7]; moderate COVID-19 at baseline): 7 days
patients discharged beyond day 8 ([7]; moderate disease at baseline, 1.5 mg/day, three of eight): 38%
patients discharged beyond day 8 ([7]; moderate disease at baseline, 2.0 mg/day, three of seven): 43%
patients discharged by day 8 ([7]; moderate disease at baseline, 2.5 mg/day): 8 of 8
discharge rate by Day 8 ([7]; moderate disease, 17 of 23): 73.9%
discharge rate by Day 15 ([7]; moderate disease, 22 of 23): 95.7%
discharge rate by day 8 ([7]; overall, 25 of 44): 56.8%
discharge rate by day 15 ([7]; overall, 36 of 44): 81.8%
median time to discharge ([7]; severe COVID-19 at baseline): 14 days
discharge rate by Day 8 ([7]; severe disease, 4 of 15): 27%
discharge rate by Day 15 ([7]; severe disease, 8 of 15): 53.3%
IC90 [8]: 0.88 nM
MTD [9, 11]: 3.60 mg/m2
RD [9, 11]: 3.2 mg/m2
MTD [9, 12]: 1.35 mg/m2
RD [9, 12]: 1.2 mg/m2
MTD [9, 13]: 6 mg/m2
RD [9, 13]: 5 mg/m2
MTD [9, 14]: 4.50 mg/m2
RD [9, 14]: 3.75 mg/m2
MTD [9, 15]: 6 mg/m2
RD [9, 15]: 5 mg/m2
recommended dose for subsequent phase 2 studies ([9]; cancer patients, daily over 5 consecutive days): 1.2 mg/m^2/day
QTcF [10]: ≤ 480 ms
δ QTcF [10]: ≤ 60 ms
